“And” between values parts separate entries of the source, which are not always exact repeats. Equal entries are not always repeated.
Legend:
[1] = target: T1, Oatp1b2 (Mus musculus, UniProt Q9JJL3); experiment: Baseline plasma CDCA-24G in Oatp1b2(−/−) vs wild-type mice, validated quantitative LC-MS/MS; type: in vivo; parameters: from tissue; host or cells: living wild-type mice (DBA/1LacJ or FVB background); hepatic transporter in vivo; conditions: untreated, n = 6 per group
T1 sequence (Q9JJL3 1-689): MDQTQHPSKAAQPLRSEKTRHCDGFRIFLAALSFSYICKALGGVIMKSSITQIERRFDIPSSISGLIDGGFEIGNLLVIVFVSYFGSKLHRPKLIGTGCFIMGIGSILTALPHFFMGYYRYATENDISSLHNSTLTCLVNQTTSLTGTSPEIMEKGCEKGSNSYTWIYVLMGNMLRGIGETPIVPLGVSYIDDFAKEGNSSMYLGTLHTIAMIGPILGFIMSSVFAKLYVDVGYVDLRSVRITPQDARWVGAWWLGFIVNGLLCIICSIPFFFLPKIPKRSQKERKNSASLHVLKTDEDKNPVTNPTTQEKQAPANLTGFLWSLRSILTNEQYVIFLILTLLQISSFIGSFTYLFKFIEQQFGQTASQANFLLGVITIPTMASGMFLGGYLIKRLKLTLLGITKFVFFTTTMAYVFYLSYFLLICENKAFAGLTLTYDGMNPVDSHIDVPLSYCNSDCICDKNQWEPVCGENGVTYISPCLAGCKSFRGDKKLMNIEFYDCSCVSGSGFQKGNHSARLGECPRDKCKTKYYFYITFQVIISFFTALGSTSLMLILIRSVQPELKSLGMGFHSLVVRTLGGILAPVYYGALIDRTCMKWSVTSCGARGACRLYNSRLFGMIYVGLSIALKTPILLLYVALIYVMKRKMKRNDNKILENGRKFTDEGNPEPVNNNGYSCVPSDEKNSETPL
Protocol: (§1) Plasma concentrations of levels of CDCA-24G and glycochenodeoxycholate-3-sulfate (GCDCA-S) were determined using LC-MS/MS using a Vanquish UHPLC coupled with a Quantiva triple quadrupole mass spectrometer (Thermo Fisher Scientific, Waltham, MA, USA). An Accucore aQ column (50 × 2.1 mm, dp = 2.6 μm; Thermo Fisher Scientific) was protected by a C18 AQUASIL guard cartridge (2.1 mm × 10 mm, dp = 3 μm; Thermo Fisher Scientific). The injection volume of sample was 5.0 μL. The temperature of the autosampler rack was 4 °C, and the temperature of the column was maintained at 20 °C. The mobile phase was composed of solvent A (2 mmol ammonium acetate in water) and solvent B (100% methanol), and the total run time was 4.6 min. The gradient conditions were as follows: 0–0.5 min, 45% B; 0.5–2.0 min, 45 to 90%, 2.0–4.0 min, 90% B; 4.0–4.6 min, 45% B, delivered at a flow rate of 0.4 mL/min. […] Precursor molecular ions, and product ions were recorded for the confirmation and detection of GCDCA-S (528.4 > 448.3) and CDCA-24G (567.4 > 391.1), using [^2H5]-GCDCA-S (535.5 > 453.3) and [^2H5]-CDCA-24G (572.5 > 396.1) as respective internal standards. The lower limit of quantitation (LLOQ) for both analytes was determined to be 0.5 ng/mL. […]

[2] = target: T2, OATP1B1 (Homo sapiens, UniProt Q9Y6L6); experiment: Uptake in HEK293 cells overexpressing OATP1B1; type: cell-based; conditions: HEK293 cells overexpressing OATP1B1, 5 min uptake, vs empty vector
T2 construct: expressed in transfected cells; host or cells: HEK293 (ATCC)
T2 sequence (Q9Y6L6 1-691): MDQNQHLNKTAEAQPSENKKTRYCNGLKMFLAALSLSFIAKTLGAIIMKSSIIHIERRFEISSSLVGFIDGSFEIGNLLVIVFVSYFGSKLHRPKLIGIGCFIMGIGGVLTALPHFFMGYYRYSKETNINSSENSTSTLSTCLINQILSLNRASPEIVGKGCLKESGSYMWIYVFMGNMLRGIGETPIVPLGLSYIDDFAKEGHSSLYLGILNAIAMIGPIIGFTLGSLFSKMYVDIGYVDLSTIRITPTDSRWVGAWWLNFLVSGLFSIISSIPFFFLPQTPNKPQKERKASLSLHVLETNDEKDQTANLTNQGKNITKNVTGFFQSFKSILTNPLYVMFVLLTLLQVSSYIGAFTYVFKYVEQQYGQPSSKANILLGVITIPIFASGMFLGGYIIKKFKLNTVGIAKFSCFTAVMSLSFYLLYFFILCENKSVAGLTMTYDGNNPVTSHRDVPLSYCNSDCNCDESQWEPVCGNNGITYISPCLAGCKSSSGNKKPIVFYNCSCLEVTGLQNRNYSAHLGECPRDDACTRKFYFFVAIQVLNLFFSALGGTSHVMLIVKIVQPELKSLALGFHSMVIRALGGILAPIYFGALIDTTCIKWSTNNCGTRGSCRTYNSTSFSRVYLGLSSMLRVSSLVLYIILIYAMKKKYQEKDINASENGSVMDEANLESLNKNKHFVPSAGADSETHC
Protocol: The generation of human embryonic kidney (HEK293) cells (ATCC) engineered to overexpress OATP1B1, Oatp1b2, or empty vector, the cell culture conditions, and general details of uptake studies have been reported in detail elsewhere. Briefly, cells were grown to 90% confluence on poly-lysine coated multi-well plates. […] The pre-treatment medium was rinsed off with warm 1× PBS followed by the addition of the test compounds for an incubation period of 5 min. After incubation, transport was halted by aspirating the medium and rinsing the cells three times with ice-cold 1× PBS. After lysing cells with 0.1 N HCl, and subsequent adding methanol, 20 μL aliquots were mixed with 60 μL of acetonitrile containing relevant internal standards. After vortex mixing, the mixtures were centrifuged, and the supernatants were used for quantitative analysis by LC-MS/MS. Drug uptake results were normalized to total protein content and then to data obtained in cells carrying an empty vector plasmid, which was set to 100%.

[3] = target: T1, Oatp1b2; experiment: Untargeted metabolomics of plasma from untreated wild-type and Oatp1b2(−/−) mice
[4] = tested on: human OATP1B1; experiment: Baseline plasma CDCA-24G in Oatp1a/1b(−/−) mice with transgenic hepatic expression of OATP1B1 (OATP1B1(tg)); type: in vivo, mouse; conditions: range stated jointly for OATP1B1(tg) and OATP1B3(tg)
Protocol: as §1

C[C@H](CCC(=O)O[C@@H]1O[C@H](C(=O)O)[C@@H](O)[C@H](O)[C@H]1O)[C@H]1CC[C@H]2[C@@H]3[C@H](O)C[C@@H]4C[C@H](O)CC[C@]4(C)[C@H]3CC[C@]12C [CDCA-24G, chenodeoxycholate-24-glucuronide]
Plasma concentration of CDCA-24G in Oatp1b2(−/−) mice relative to wild type [1]: 31 fold and > 30 fold
Transport by human OATP1B-type transporter [2]: efficiently transported
Increase of plasma level in Oatp1b2(−/−) mice vs. wild-type mice ([3]; based on semi-quantitative analysis): ≈ 98 fold
Fold of Change KO/WT ([3]; plasma of untreated Oatp1b2-deficient (KO) vs wild-type (WT) mice, semi-quantitative, positive = higher in KO, n = 6 per group): 97.9
Mean value KO ([3]; plasma of untreated Oatp1b2-deficient mice, raw area counts rescaled to median = 1): 1.15
Mean value WT ([3]; plasma of untreated wild-type mice, raw area counts rescaled to median = 1): .0120
Baseline CDCA-24G level, fold lower than in Oatp1a/1b(−/−) mice [4]: 5- to 7 fold

Reference: publication PMC9502272, “A Metabolomics Approach for Predicting OATP1B-Type Transporter-Mediated Drug–Drug Interaction Liabilities” (Pharmaceutics, 2022)
